Experiments:
[1] = Fraction unbound in Wistar Han rat skeletal muscle at 2 uM incubated for 6 hrs by equilibrium dialysis method
[2] = Apparent permeability of the compound across dog RRCK cells by MDCK-LE assay
[3] = Fraction unbound in Wistar Han rat liver at 2 uM incubated for 6 hrs by equilibrium dialysis method
[4] = Unbound tissue partition coefficient, ratio of drug level in heart to plasma in Wistar Han rat at 1 to 2 mg/kg, iv infused for 10 to 20 hrs by LC-MS/MS analysis; details: heart/plasma
[5] = Fraction unbound in Wistar Han rat heart at 2 uM incubated for 6 hrs by equilibrium dialysis method
[6] = Total plasma concentration in Wistar Han rat at 1 to 2 mg/kg, iv infused for 10 to 20 hrs by LC-MS/MS analysis; details: in vivo
[7] = Unbound tissue partition coefficient, ratio of drug level in adipose to plasma in Wistar Han rat at 1 to 2 mg/kg, iv infused for 10 to 20 hrs by LC-MS/MS analysis; details: adipose/plasma
[8] = Drug concentration in total skeletal muscle in Wistar Han rat at 1 to 2 mg/kg, iv infused for 10 to 20 hrs by LC-MS/MS analysis; details: in vivo
[9] = Drug concentration in total liver in Wistar Han rat at 1 to 2 mg/kg, iv infused for 10 to 20 hrs by LC-MS/MS analysis; details: in vivo
[10] = Fraction unbound in Wistar Han rat brain at 2 uM incubated for 6 hrs by equilibrium dialysis method
[11] = Unbound tissue partition coefficient, ratio of drug level in liver to plasma in Wistar Han rat at 1 to 2 mg/kg, iv infused for 10 to 20 hrs by LC-MS/MS analysis; details: liver/plasma
[12] = Drug concentration in total white adipose tissue in Wistar Han rat at 1 to 2 mg/kg, iv infused for 10 to 20 hrs by LC-MS/MS analysis; details: in vivo
[13] = Drug concentration in total heart in Wistar Han rat at 1 to 2 mg/kg, iv infused for 10 to 20 hrs by LC-MS/MS analysis; details: in vivo
[14] = Fraction unbound in Wistar Han rat white adipose tissue at 2 uM incubated for 6 hrs by equilibrium dialysis method
[15] = Fraction unbound in Wistar Han rat plasma at 2 uM incubated for 6 hrs by equilibrium dialysis method
[16] = Unbound tissue partition coefficient, ratio of drug level in brain to plasma in Wistar Han rat at 1 to 2 mg/kg, iv infused for 10 to 20 hrs by LC-MS/MS analysis; details: brain/plasma
[17] = Drug concentration in total brain in Wistar Han rat at 1 to 2 mg/kg, iv infused for 10 to 20 hrs by LC-MS/MS analysis; details: in vivo
[18] = Unbound tissue partition coefficient, ratio of drug level in skeletal muscle to plasma in Wistar Han rat at 1 to 2 mg/kg, iv infused for 10 to 20 hrs by LC-MS/MS analysis; details: skeletal muscle/plasma

Compound	fraction unbound at 6 h, 2 µM [1]	Papp [2] [×10⁻⁶ cm/s]	fraction unbound at 6 h, 2 µM [3]	Kp uu [4]	fraction unbound at 6 h, 2 µM [5]	Cp [6] [ng/mL]	Kp uu [7]	Ct [8] [ng/mL]	Ct [9] [ng/mL]	fraction unbound at 6 h, 2 µM [10]	Kp uu [11]	Ct [12] [ng/mL]	Ct [13] [ng/mL]	fraction unbound at 6 h, 2 µM [14]	fraction unbound at 6 h, 2 µM [15]	Kp uu [16]	Ct [17] [ng/mL]	Kp uu [18]
CC1(C)CN(CCC#N)C(=O)[C@@H]1Oc1ccc(C#N)c(C(F)(F)F)c1	0.263	40	0.122	0.55	0.152	160	0.81	110	500	0.0717	1	250	210	0.185	0.358	0.11	91	0.48
O=C(NC1CCCC1)C1CCN(c2nc3cc(Cl)ccc3o2)CC1	0.02	35	0.0414	2.2	0.0292	310	3.9	59	210	0.0144	4.3	330	150	0.0248	0.00646	0.64	88	0.61
C[C@H]1c2cccc(CCC(C)(C)O)c2C[C@H](CO)N1C(=O)Cc1c(Cl)cccc1Cl	0.0161	27	0.0158	2.3	0.016	150	4.9	95	690	0.0113	9.8	110	190	0.0547	0.012	0.35	39	1.3
C[C@H]1COCCN1c1nc(-c2cnc(N)nc2)c2c(n1)N([C@@]1(C)CCN(C(=O)C(C)(C)N)C1)CC2	0.16	5.1	0.146	18	0.0824	4.5	6.9	38	46	0.0654	3.6	45	400	0.281	0.438	0.065	2	3.5
Cc1c(C(=O)O)cnn1-c1nc(-c2cccc(C(F)(F)F)c2)cs1	0.0139	38	0.00676	1.4	0.00954	93	0.86	29	520	0.00498	3.9	13	130	0.0597	0.00965	0.12	22	0.45
NC(=O)c1c(-c2ccc(Oc3ccc(Cl)cc3)cc2)nn([C@@H]2CCCN(C(=O)/C=C/CO)C2)c1N	0.0154	5.5	0.0115	2.7	0.013	55	2	97	470	0.00529	4.5	21	240	0.113	0.0219	0.011	2.4	1.3
CC1(OC(=O)N2CCC(n3ncc(COc4ccc(C(N)=O)cc4F)c3C#N)CC2)CC1	0.0634	26	0.0561	2.8	0.0693	150	1.6	100	520	0.0366	4.7	73	220	0.137	0.044	0.24	40	1
COc1cc2c(OC[C@H]3NC(=O)[C@@H]4C[C@]34C)nccc2cc1C(N)=O	0.403	19	0.368	1.2	0.399	110	0.38	67	1000	0.294	11	16	100	0.803	0.298	0.032	3.7	0.8
CC(C)n1ncc2c1C(=O)CC1(CCN(C(=O)c3ccc4[nH]nc(C(N)=O)c4c3)CC1)C2	0.172	3.6	0.108	1.1	0.121	65	0.98	30	500	0.0763	7.9	17	62	0.398	0.119	0.0018	0.38	0.76
Cn1nc(C(=O)NCCN2CCOCC2)cc1-c1cc2ccccc2[nH]1	0.0664	33	0.0714	1.3	0.0422	29	1.1	42	300	0.0291	4.4	29	150	0.189	0.176	0.12	19	0.57
Cc1ccc(NC(=O)c2cc(Oc3ccc(S(C)(=O)=O)cc3)c3c(c2)OC(C)(C)C3)nc1	0.011	22	0.00864	0.43	0.0109	68	0.41	89	150	0.0077	0.24	1000	220	0.00216	0.0809	0.1	69	0.18
CC(=O)NS(=O)(=O)c1ccc(Oc2ccc(F)c(Cl)c2)c(C(F)(F)F)c1	0.0581	35	0.0598	1.8	0.0329	450	1.6	24	1.4	0.0319	0.033	14	103	0.229	0.00426	0.074	4.4	0.72
COc1cc2c(cc1Cc1ccccc1)C[C@H](N)C(=O)N2OC(=O)N(C)C	0.0886	38	0.147	2.5	0.209	18	1.1	32	33	0.0385	0.74	33	76	0.214	0.354	0.1	16	0.46
